From US20070099877A1, “N-aryl-thienopyrimidin-4-amines and analogs as activators of caspases and inducers of apoptosis and the use thereof” (Cytovia, Inc., priority 2005, published 2007)
pEC50: −log10 of the molar value. Where a name gives a salt, the structure may show the parent alone. Read-outs that look alike come from different tables or passages of the source.

Assays:
Assay type in all cases: cell-based
[1] = system: human breast cancer cell line T-47D; assay: Caspase cascade activation (DEVD-R110 fluorogenic substrate) in T-47D cells; conditions: Homo sapiens, T47D
Procedure: (§1) Human breast cancer cell line T-47D, human lung cancer cell line H1299, human hepatocellular carcinoma cell line SNU398, human colon carcinoma cell line HCT116 were grown according to media component mixtures designated by American Type Culture Collection+10% FCS (Invitrogen Corporation), in a 5% CO2-95% humidity incubator at 37° C. T-47D and H1299 cells were maintained at a cell density between 50 and 80% confluency at a cell density of 0.1 to 0.6×10^6 cells/mL. Cells were harvested at 600×g and resuspended at 0.65×10^6 cells/mL into appropriate media+10% FCS. An aliquot of 22.5 μL of cells was added to a well of a 384-well microtiter plate containing 2.5 μL of a 10% DMSO in RPMI-1640 media solution containing 0.16 to 100 μM of N-(2,5-dimethoxyphenyl)-2-methylthieno[3,2-d]pyrimidin-4-amine or other test compound (0.016 to 10 μM final). An aliquot of 22.5 μL of cells was added to a well of a 384-well microtiter plate containing 2.5 μL of a 10% DMSO in RPMI-1640 media solution without test compound as the control sample. The samples were mixed by agitation and then incubated at 37° C. for 24 h or 48 h in a 5% CO2-95% humidity incubator. After incubation, the samples were removed from the incubator and 25 μL of a solution containing 14 μM of N-(Ac-DEVD)-N′-ethoxycarbonyl-R110 (SEQ ID NO.:1) fluorogenic substrate (Cytovia, Inc.; WO99/18856), 20% sucrose (Sigma), 20 mM DTT (Sigma), 200 mM NaCl (Sigma), 40 mM Na PIPES buffer pH 7.2 (Sigma), and 500 μg/mL lysolecithin (Calbiochem) was added. The samples were mixed by agitation and incubated at room temperature. Using a fluorescent plate reader (Model SPECTRAfluor Plus, Tecan), an initial reading (T=0) was made approximately 1-2 min after addition of the substrate solution, employing excitation at 485 nm and emission at 530 nm, to determine the background fluorescence of the control sample. After the 3 h incubation, the samples were read for fluorescence as above (T=3 h).
(§2) The Relative Fluorescence Unit values (RFU) were used to calculate the sample readings as follows: RFU(T=3h)−Control RFU(T=O)=Net RFU(T=3h)
(§3) The activity of caspase cascade activation was determined by the ratio of the net RFU value for N-(2,5-dimethoxyphenyl)-2-methylthieno[3,2-d]pyrimidin-4-amine or other test compound to that of control samples. The EC50 (nM) was determined by a sigmoidal dose-response calculation (Prism 3.0, GraphPad Software Inc.).

[2] = system: human lung cancer cell line H1299; assay: Caspase cascade activation in H1299 cells; conditions: NCI-H1299, 24 h, read-out: Caspase activation Potency EC50 H1299 (24 h)
Procedure: as §1, §2, §3

[3] = system: human hepatocellular carcinoma cell line SNU398; assay: Caspase cascade activation in SNU398 cells; conditions: Homo sapiens, SNU-398, 48 h, read-out: Caspase activation Potency EC50 SNU398 (48 h)
Procedure: as §1, §2, §3

[4] = system: human colon carcinoma cell line HCT116; assay: Caspase cascade activation in HCT116 cells; conditions: Homo sapiens, HCT-116, 48 h, read-out: Caspase activation Potency EC50 HCT116 (48 h)
Procedure: as §1, §2, §3

[5] = 24 h, T47D cells, 24 h, read-out: Caspase activation Potency EC50 T47D (24 h)
[6] = 48 h, T-47D cells, 48 h, read-out: Caspase activation Potency EC50 T-47D (48 h)

Structure (SMILES) | pEC50 [1, 5] | pEC50 [1, 6] | pEC50 [2] | pEC50 [3] | pEC50 [4]
COc1ccc(Nc2nc(C)nc3scc(C)c23)cc1 [Example 13, N-(4-Methoxyphenyl)-2,5-dimethylthieno[2,3-d]pyrimidin-4-amine hydrochloride] | < 5.00 | < 5.00 | < 5.00 | < 5.00 | < 5.00
COc1ccc(Nc2nc(C)nc3sccc23)cc1 [Example 15, N-(4-Methoxyphenyl)-2-methylthieno[2,3-d]pyrimidin-4-amine] | 5.24 | 5.26 | 5.29 | 5.28 | < 5.00
COc1ccc(Nc2ncnc3ccsc23)cc1 [Example 19, N-(4-Methoxyphenyl)thieno[3,2-d]pyrimidin-4-amine hydrochloride] | < 5.00 | < 5.00 | < 5.00 | < 5.00 | < 5.00
Cc1cc(Nc2ncnc3ccsc23)no1 [Example 21, N-(5-Methylisoxazol-3-yl)thieno[3,2-d]pyrimidin-4-amine hydrochloride] | < 5.00 | < 5.00 | < 5.00 | < 5.00 | < 5.00
COc1ccc(Nc2ncnc3scc(C)c23)cc1 [Example 23, N-(4-Methoxyphenyl)-5-methylthieno[2,3-d]pyrimidin-4-amine] | < 5.00 | < 5.00 | < 5.00 | < 5.00 | < 5.00
c1nc(Nc2ccc3[nH]ccc3c2)c2sccc2n1 [Example 24, N-(1H-Indol-5-yl)thieno[3,2-d]pyrimidin-4-amine] | < 5.00 | < 5.00 | < 5.00 | < 5.00 | < 5.00
Brc1cccc(Nc2ncnc3ccsc23)c1 [Example 25, N-(3-Bromophenyl)thieno[3,2-d]pyrimidin-4-amine hydrochloride] | 5.25 | < 5.00 | 5.26 | < 5.00 | < 5.00
COc1cccc(C)c1Nc1ncnc2ccsc12 [Example 30, N-(2-Methoxy-6-methylphenyl)thieno[3,2-d]pyrimidin-4-amine] | < 5.00 | < 5.00 | 5.29 | < 5.00 | < 5.00
CCOC(=O)C=Cc1ccc(Nc2ncnc3ccsc23)cc1 [Example 33, 3-[4-(Thieno[3,2-d]pyrimidin-4-ylamino)-phenyl]acrylic acid ethyl ester] | < 5.00 | < 5.00 | < 5.00 | < 5.00 | < 5.00
COc1ccc([N+](=O)[O-])c(Nc2ncnc3ccsc23)c1 [Example 35, N-(5-Methoxy-2-nitrophenyl)thieno[3,2-d]pyrimidin-4-amine] | < 5.00 | < 5.00 | < 5.00 | < 5.00 | < 5.00
CCOc1ccc(OCC)c(Nc2ncnc3ccsc23)c1 [Example 36, N-(2,5-Diethoxyphenyl)thieno[3,2-d]pyrimidin-4-amine] | < 5.00 | 6.06 | 5.29 | 5.29 | < 5.00

More lines, now with the values ahead:

pEC50 [1, 5] | pEC50 [1, 6] | pEC50 [2] | pEC50 [3] | pEC50 [4] | Structure (SMILES)
5.74 | 5.69 | < 5.00 | < 5.00 | < 5.00 | COc1ccc(Nc2ncnc3ccsc23)cc1OC [Example 14, N-(3,4-Dimethoxyphenyl)thieno[3,2-d]pyrimidin-4-amine hydrochloride]
< 5.00 | < 5.00 | < 5.00 | < 5.00 | < 5.00 | COc1ccc(OC)c(Nc2ncnc3sc(-c4ccccc4)c(C)c23)c1 [Example 16, N-(2,5-Dimethoxyphenyl)-5-methyl-6-phenylthieno[2,3-d]pyrimidin-4-amine hydrochloride]
7.44 | 6.98 | 6.52 | 6.27 | 6.46 | COc1ccc(OC)c(Nc2ncnc3cc(I)sc23)c1 [Example 17, 6-Iodo-N-(2,5-dimethoxyphenyl)thieno[3,2-d]pyrimidin-4-amine hydrochloride]
7.15 | 6.77 | 5.55 | < 5.00 | < 5.00 | COc1ccc(OC)c(Nc2ncnc3c(C)c(I)sc23)c1 [Example 18, 6-Iodo-N-(2,5-dimethoxyphenyl)-7-methylthieno[3,2-d]pyrimidin-4-amine hydrochloride]
7.80 | 7.43 | 6.94 | 6.37 | 6.47 | COc1ccc(OC)c(Nc2ncnc3cc(Br)sc23)c1 [Example 20, 6-Bromo-N-(2,5-dimethoxyphenyl)thieno[3,2-d]pyrimidin-4-amine]
6.94 | 6.63 | 5.30 | < 5.00 | 6.47 | COc1ccc(OC)c(Nc2ncnc3c(C)csc23)c1 [Example 22, N-(2,5-Dimethoxyphenyl)-7-methylthieno[3,2-d]pyrimidin-4-amine]
6.32 | 6.30 | 5.30 | < 5.00 | < 5.00 | COc1ccc(OC)c(Nc2nc(-c3ccccc3)nc3ccsc23)c1 [Example 26, N-(2,5-Dimethoxyphenyl)-2-phenylthieno[3,2-d]pyrimidin-4-amine]
7.70 | 7.44 | 7.39 | 6.69 | 6.50 | COc1ccc(OC)c(Nc2nc(SC)nc3ccsc23)c1 [Example 27, N-(2,5-Dimethoxyphenyl)-2-(methylthio)thieno[3,2-d]pyrimidin-4-amine]
6.37 | 6.27 | < 5.00 | < 5.00 | < 5.00 | COc1ccc(OC)c(Nc2ncnc3sc(C)cc23)c1 [Example 28, N-(2,5-Dimethoxyphenyl)-6-methylthieno[2,3-d]pyrimidin-4-amine hydrochloride]
< 5.00 | < 5.00 | < 5.00 | < 5.00 | < 5.00 | COc1ccc(OC)c(Nc2nc(C)nc3sc(C)c(C)c23)c1 [Example 29, N-(2,5-Dimethoxy-phenyl)-2,5,6-trimethylthieno[2,3-d]pyrimidin-4-amine hydrochloride]
6.38 | 6.28 | < 5.00 | < 5.00 | < 5.00 | COc1ccc(C)cc1Nc1ncnc2ccsc12 [Example 31, N-(2-Methoxy-5-methylphenyl)thieno[3,2-d]pyrimidin-4-amine]
5.68 | 5.40 | 5.85 | 5.80 | 5.37 | COc1ccc(OC)c(Nc2ncnc3cc(-c4ccccc4)sc23)c1 [Example 32, N-(2,5-Dimethoxyphenyl)-6-phenylthieno[3,2-d]pyrimidin-4-amine]
< 5.00 | < 5.00 | < 5.00 | < 5.00 | < 5.00 | COc1ccc(OC)c(Nc2ncnc3sc(C)c(C)c23)c1 [Example 34, N-(2,5-Dimethoxyphenyl)-5,6-dimethylthieno[2,3-d]pyrimidin-4-amine]
5.29 | 5.27 | 5.30 | 5.45 | < 5.00 | COc1ccc([N+](=O)[O-])cc1Nc1ncnc2ccsc12 [Example 37, N-(2-Methoxy-5-nitrophenyl)thieno[3,2-d]pyrimidin-4-amine]
< 5.00 | < 5.00 | < 5.00 | < 5.00 | < 5.00 | COc1ccc(Oc2ccccc2)cc1Nc1ncnc2ccsc12 [Example 38, N-(2-Methoxy-5-phenoxyphenyl)thieno[3,2-d]pyrimidin-4-amine]
